Experiments:
TNFα = settings: culture supernatant, 24h after substance P addition; clonidine treatment before and during substance P stimulation (topical formulations 0.05%-1% on the epidermis)
Text: (§1) Human biopsy samples of clinically healthy human skin were obtained from patients undergoing plastic surgery. All patients gave their written informed consent before the surgery has carried out.
(§2) Skin biopsies were cut into 1 cm2 full thickness pieces and washed three times with antibiotics. Subcutaneous fat and lower dermis were mechanically removed. Skin fragments were transferred onto permeable polycarbonate membrane transwells (12 mm diameter, 12 µm pore size) in a well of 12 well plate (as previously described Boisnic S. et al., [1-3]) containing 700µl of defined medium (DMEM, antibiotics, hormones, pituitary extract, FCS). Explants were maintained at the interface between air and medium with the epithelium uppermost and the dermis exposed to the media by diffusion through the porous membrane.
(§3) Cohesion between skin fragments and inserts was obtained with a polyvinylsiloxane addition type silicone elastomer seal (coltène® president) in such a way that no skin retraction or lateral passage of the product towards the dermis was possible.
(§4) The culture was set up for 36 hours in a humidified atmosphere containing 5% CO2 at 37°C, and medium was daily change, culture supernatants were frozen at -80°C until further analysis.
The stimulation of the experimental oral human skin inflammatory process was done by the neuropeptide substance P (SP) [1]. […]

[1] = tested on: human skin organotypic culture; settings: histology of papillary and upper reticular dermis, 24h after substance P addition; clonidine treatment before and during substance P stimulation
Text: as §1, §2, §3, §4
At the end of culture all human skin fragments were formalin fixed and paraffin embedded. […]

[2] = clinical trials of breast or colorectal cancer; cited from earlier work

| SMILES | proinflammatory cytokines TNFα level (TNFα) | skin oedema [1] | vasodilatation [1] | overall incidence of HFS [2] | patients reporting a severe form (grade 3) of HFS [2] [%] |
| --- | --- | --- | --- | --- | --- |
| Clc1cccc(Cl)c1NC1=NCCN1 [clonidine, N-(2,6-dichlorophenyl)-4,5-dihydro-1H-imidazol-2-amine] | decrease | decrease | decrease |  |  |
| CCCCCOC(=O)Nc1nc(=O)n([C@@H]2O[C@H](C)[C@@H](O)[C@H]2O)cc1F [capecitabine, N4-pentyloxycarbonyl-5'-deoxy-5-fluorocytidine] |  |  |  | around 50% | 17 |

— EP2368549A1, “Treating hand-foot syndrome and related pathologies using clonidine or its derivatives” (BioAlliance Pharma, priority 2010, dated 2011)
